Test results: patent EP0906100B1, “USE OF 5-HT 1A? RECEPTOR ANTAGONISTS FOR THE TREATMENT OF URINARY INCONTINENCE” (RECORDATI S.A., priority 1996, dated 1997)
pKi: −log10 of the molar value.

Assays:
[1] = molecular target: T1, 5-HT1A receptor (Rattus norvegicus, UniProt P19327); assay: [3H]8-OH-DPAT binding (5HT1A receptors), rat hippocampi; conditions: 1 nM [3H]8-OH-DPAT, read-out: Binding affinity for the 5-HT1A receptor, Ki
T1 construct: Rat hippocampi were homogenized in 50 volumes of ice-cold 50 mM Tris-HCl pH 7.4; from tissue; host or cells: rat hippocampus membranes
T1 sequence (P19327 1-422): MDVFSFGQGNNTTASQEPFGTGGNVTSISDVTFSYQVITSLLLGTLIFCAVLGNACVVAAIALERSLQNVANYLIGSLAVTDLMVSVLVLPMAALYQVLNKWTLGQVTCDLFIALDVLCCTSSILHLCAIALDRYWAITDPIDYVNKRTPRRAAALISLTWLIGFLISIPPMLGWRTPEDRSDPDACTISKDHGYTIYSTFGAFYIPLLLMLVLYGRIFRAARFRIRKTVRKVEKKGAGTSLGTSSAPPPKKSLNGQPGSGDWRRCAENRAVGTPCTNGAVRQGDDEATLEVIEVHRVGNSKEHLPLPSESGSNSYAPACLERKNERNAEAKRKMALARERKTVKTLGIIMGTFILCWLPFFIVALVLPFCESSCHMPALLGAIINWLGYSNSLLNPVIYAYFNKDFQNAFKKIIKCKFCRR
Method: [^3H]8-OH-DPAT binding (5HT1A receptors):
Rat hippocampi were homogenized in 50 volumes of ice-cold 50 mM Tris-HCl pH 7.4. The homogenates were centrifuged at 48,000 x g for 10 minutes, and the pellets were resuspended in the same volume of ice-cold buffer, incubated for 10 minutes at 37°C, centrifuged and resuspended two more times. The final pellets obtained were resuspended in 100 volumes of 50 mM Tris-HCl, pH 7.4, containing 0.1 % ascorbic acid and 10 µM pargyline. 1 ml samples were incubated for 30 min at 25°C with 1 nM [^3H]8-OH-DPAT, in absence or presence of different concentrations (10^-5 to 10^-10 M) of the test compound. Non-specific binding was determined in the presence of 10 µM 5-HT. The incubations were terminated by rapid filtration through Whatman GF/B filters using a Brandel cell harvester, after which the filters were washed with 3 x 3 ml of ice-cold buffer. The radioactivity retained on the filters was determined by liquid scintillation counting.

[2] = system: post-synaptic 5-HT1A receptor; assay: Inhibition of forepaw treading induced by 8-OH-DPAT in rats; format: in vivo; conditions: i.p., forepaw treading induced by 1 mg/kg s.c. 8-OH-DPAT
Method: Inhibition of forepaw treading induced by 8-OH-DPAT in rats:
Male Sprague-Dawley rats (150-175 g) obtained from Charles River (Italy), were housed in a climate-controlled room and maintained on a 12 h light/dark cycle with free access to food and water. On the day of experiment, rats were placed singly in clear plastic boxes. Reserpinised rats were treated with reserpine, 1 mg/kg s.c., 18-24 h before the test.
The appearance of the forepaw treading symptom induced by post-synaptic stimulation of the 5HT1A receptors was noted, and its intensity was scored using a ranked intensity scale in which: 0 = absent, 1 = equivocal, 2 = present and 3 = intense. Behavioural scores for each treated rat were accumulated over the time course (5 observation periods) and expressed as mean values of 8-10 rats.

Structure (SMILES)	pKi [1]	NORMAL RATS ID50 ([2]; normal rats)	RESERPINIZED RATS ID50 ([2]; reserpinized rats)
O=C(C1CCCCC1)N(CCN1CCN(c2cccc3[nH]ccc23)CC1)c1ccccn1 [Compound B, N-{2-[4-(4-Indolyl)-1-piperazinyl]-ethyl}-N-(2-pyridyl)-cyclohexanecarboxamide]	9.89	–	–
COc1ccccc1N1CCN(CCCCN2C(=O)c3ccccc3C2=O)CC1 [NAN-190, 1-(2-methoxyphenyl)-4-[4-(2-phthalimido)-butyl]-piperazine]	8.72	700 (500-1000) µg/Kg	2000 (1600-2400) µg/Kg
